Results published in EPA's ToxValDB 9.5.
Several values for one entry are separate records, joined by “and”; a condition that tells them apart may be missing. Equal values may be shown once.

Columns and labels:
[1] = system: Rattus norvegicus; conditions: M/F
[2] = system: Mus musculus
[3] = system: Rattus norvegicus
[4] = system: Rattus norvegicus; conditions: subchronic, oral; for NOEL: gavage
[5] = system: Rattus norvegicus; remark: listed apart in the source
[6] = system: Rattus norvegicus; conditions: Hershberger, duration: 10 days, oral, gavage
[7] = system: Oryctolagus sp.; conditions: acute; dermal; New Zealand
[8] = chronic, duration: 2 years, oral, diet, reduced weight gain, organ weight changes, increased mortality
[9] = developmental, oral, reduced body weight gain in parental animals and pups
[10] = reproduction developmental, oral, kidney, spleen, liver, and bone marrow toxicity
[11] = short-term, duration: 2 weeks, oral, gavage, B6C3F1
[12] = subchronic, duration: 13 weeks, inhalation, B6C3F1
[13] = subchronic, duration: 13 weeks, oral, gavage, B6C3F1
[14] = short-term, duration: 2 weeks, oral, gavage, Fischer 344
[15] = subchronic, duration: 13 weeks, inhalation, Sprague-Dawley
[16] = subchronic, duration: 13 weeks, oral, gavage, F, Fischer 344
[17] = subchronic, duration: 13 weeks, oral, gavage, M, Fischer 344
[18] = chronic, inhalation, increased kidney, adrenal and pituitary weight
[19] = developmental, inhalation, Reduced maternal weight gain
[20] = acute, oral, gavage, Sprague-Dawley
[21] = subchronic, duration: 90 days, oral, diet, Sprague-Dawley

CC1=C(C(=O)Nc2ccccc2)SCCO1 [Carboxin]
LEL [1, 8]: 30 mg/kg-day | NOEL [1, 8]: 10 mg/kg-day

CN(C)NC(=O)CCC(=O)O [Daminozide]
NOEL ([1]; reproduction developmental, oral, no effects): 15 mg/kg-day

O=C(CCl)c1ccccc1 [2-Chloroacetophenone]
LOAEL ([1]; chronic, inhalation, squamous hyperplasia of the nasal respiratory epithelium): 1 mg/m3

CCN(CC)C(=O)C(C)Oc1cccc2ccccc12 (stereo not drawn) [Napropamide]
LEL [1, 9]: 100 mg/kg-day | NOEL [1, 9]: 30 mg/kg-day

CCCCCCCCCCCCN [1-Dodecanamine]
LD50 ([2]; acute, oral, gavage): 1160 mg/kg | LD50 ([3]; acute, oral, gavage): 1020 mg/kg | LD50 ([3]; acute, oral, gavage, Wistar): > 2000 mg/kg

CC(C)OC(=O)Nc1cccc(Cl)c1 [Chlorpropham]
NOAEL ([4]; duration: 90 days, diet, M/F, Fischer 344, Clinical Observation: Pale + Body Weight Changes: decrease + Hematology: RBC decrease, HGB decrease, HCT decrease, MCV increase, MCH …): < 720 mg/kg-day | LEL [1, 10]: 150 mg/kg-day | NOEL [1, 10]: 50 mg/kg-day

C=CC1CC=CCC1 (stereo not drawn) [4-Vinylcyclohexene]
LC50 ([2]; acute, inhalation): 46900 mg/m3 | NOAEL ([2]; short-term, duration: 2 weeks, inhalation, B6C3F1): 3190 mg/m3 | LOAEL [2, 11]: 2500 mg/kg-day | NOAEL [2, 11]: 1250 mg/kg-day | LOAEL [2, 12]: 4420 mg/m3 | NOAEL [2, 12]: 1110 mg/m3 | LOAEL [2, 13]: 1200 mg/kg-day | NOAEL [2, 13]: 600 mg/kg-day | LC50 ([3]; acute, inhalation): 27000 mg/m3 and < 35400 mg/m3 | LD50 ([3]; acute, oral, gavage, Carworth Wistar): 2560 mg/kg | NOAEC ([3]; short-term, duration: 2 weeks, inhalation, F, Sprague-Dawley): 6640 mg/m3 | NOAEC ([3]; short-term, duration: 2 weeks, inhalation, M, Sprague-Dawley): 3190 mg/m3 | LOAEL [3, 14]: 1250 mg/kg-day | NOAEL [3, 14]: 600 mg/kg-day | LOAEL [3, 15]: 4420 mg/m3 | NOAEL [3, 15]: 1110 mg/m3 | LOAEL [3, 16]: 800 mg/kg-day | NOAEL [3, 16]: 400 mg/kg-day | LOAEL [3, 17]: 400 mg/kg-day | NOAEL [3, 17]: 200 mg/kg-day | NOEL ([4]; duration: 13 weeks, M/F, Fischer 344, Deaths + Body Weight Changes: decrease + Histopathology: Kidney-Hyaline droplet degeneration Glandular stomach-Inflammation): < 50 mg/kg-day | NOEL ([4]; M, Sprague-Dawley, Clinical Observation: Salivation Locomotor activity decrease + Relative Organ Weight: Kidney increase + Histopathology: Stomach/Glandular …): < 2 mg/kg-day

CC(Cl)CCl (stereo not drawn) [1,2-Dichloropropane]
NOEL ([4]; duration: 13 weeks, M/F, Fischer 344, Deaths + Body Weight Changes: decrease + Histopathology: Liver/centrilobular-Congestion Liver-Hepatic fatty change Liver/centrilobular -…): 250 mg/kg-day | LOAEL ([1]; subchronic, duration: 13 weeks, inhalation, hyperplasia of the nasal mucosa): 69.3 mg/m3 | LOAEL ([5]; short-term, duration: 2 weeks, inhalation, M/F, Fischer 344, respiratory): 462 mg/m3 | LOAEL ([5]; subchronic, duration: 13 weeks, oral, gavage, M, Sprague-Dawley, hematological): 100 mg/kg-day

Nc1ccc(Cl)cc1 [4-Chloroaniline]
LOAEL ([1]; chronic, oral, nonneoplastic lesions of splenic capsule): 12.5 mg/kg-day

CCCCC(C)=O [2-Hexanone]
LOAEL ([5]; chronic, duration: 13 months, oral, drinking water, M, Sprague-Dawley, neurological): 143 mg/kg-day

CC(C)Oc1cccc(NC(=O)c2ccccc2C(F)(F)F)c1 [Flutolanil]
LEL ([1]; reproduction developmental, oral, Decreased body weight and body weight gains in both doses increased liver weights at high dose): 63.7 mg/kg-day | NOEL ([6]; Sprague-Dawley, inactive + Negative + neither + negative): 1000 mg/kg-day

FC(F)Cl [Chlorodifluoromethane]
LOAEL [1, 18]: 177000 mg/m3 | NOAEL [1, 18]: 35400 mg/m3 | LOAEL [1, 19]: 177000 mg/m3 | NOAEL [1, 19]: 3540 mg/m3

c1ccc(-c2ccccc2)cc1 [Biphenyl]
LOAEL ([2]; subchronic, duration: 13 weeks, inhalation, CD1): 158 mg/m3 | LD50 [7]: > 5010 mg/kg | LD50 ([3]; acute, oral, Sprague-Dawley): 2400 mg/kg | LD50 [3, 20]: 3280 mg/kg | NOAEL ([3]; chronic, duration: 750 days, oral, diet): 78 mg/kg-day | NOAEL ([3]; developmental, duration: 10 days, oral, gavage, Wistar): 500 mg/kg-day | NOAEL ([3]; reproduction developmental, duration: 10 days, oral, gavage, F, Wistar): 500 mg/kg-day | NOAEL ([3]; reproduction developmental, duration: 750 days, oral, diet, generation: F0): 1000 ppm | NOAEL ([3]; reproduction developmental, duration: 750 days, oral, diet, generation: F1): 5000 ppm | NOAEL ([3]; reproduction developmental, oral, diet, Long-Evans, generation: F0): 1000 ppm

CCCC(c1cc(C(C)(C)C)c(O)cc1C)c1cc(C(C)(C)C)c(O)cc1C [4,4'-Butane-1,1-diylbis(2-tert-butyl-5-methylphenol)]
LD50 [7]: > 7940 mg/kg | LD50 [3, 20]: > 7940 mg/kg | NOAEL ([3]; reproduction developmental, duration: 90 days, oral, diet, M, Sprague-Dawley): 100 ppm | LOAEL [3, 21]: 48 mg/kg-day | NOAEL [3, 21]: 9.6 mg/kg-day | NOEL ([6]; Wistar, inactive + Negative + Negative + anti-androgenic + negative): 125 mg/kg-day | NOEL ([6]; Wistar, inactive + Negative + Negative + anti-androgenic + negative / effects on thyroid at 125 (initial increase in T4 at 5)): 125 mg/kg-day
